For one assay, the target named is T1, p38 MAP Kinase α (Homo sapiens, UniProt Q16539).
T1 construct: purchased Upstate (Dundee UK)
Nature of the assay: p38 MAP Kinase enzyme assay. The following applies: Table 1 (biology); compound as such, Ester for Example 1; read-out: Inhibition of P38 (IC50 nM). The class given is biochemical. Here is the method:
p38 MAP Kinase Enzyme Assay
The ability of compounds to inhibit p38 MAPα Kinase activity was measured in an assay performed by Upstate (Dundee UK). In a final reaction volume of 25 μL, p38 MAP Kinase α (5-10 mU) is incubated with 25 mM Tris pH 7.5, 0.02 mM EGTA, 0.33 mg/mL myelin basic protein, 10 mM MgAcetate and [γ-^33P-ATP](specific activity approx. 500 cpm/pmol, concentration as required). The reaction is initiated by the addition of the MgATP mix. After incubation for 40 minutes at room temperature, the reaction is stopped by the addition of 5 μL of a 3% phosphoric acid solution. 10 μL of the reaction is then spotted onto a P30 filtermat and washed three times for 5 minutes in 75 mM phosphoric acid and once in methanol prior to drying and scintillation counting.
Duplicate data points are generated from a 1/3 log dilution series of a stock solution in DMSO. Nine dilutions steps are made from a top concentration of […], and a ‘no compound’ blank is included. The standard radiometric filter-binding assay is performed at an ATP concentration at, or close to, the Km. Data from scintillation counts are collected and subjected to free-fit analysis by Prism software. From the curve generated, the concentration giving 50% inhibition is determined and reported.

Assay [1] concerns phosphorylation of MAPKAP-2 in U937 cells. Nature of the assay: p38 MAP Kinase cellular assay: inhibition of phosphorylation of MAPKAP2 in U937 cells. The class given is cell-based. The settings on record: for IC50: Homo sapiens, U-937. How it is done: (§1) p38 MAP Kinase Cellular Assay: Inhibition of Phosphorylation of MAPKAP2
(§2) U937 or HUT78 cells were plated in RPMI 1640, and were incubated at 37° C., 5% CO2 for 18 hours. 10 mM stocks of compounds were diluted media/0.1% DMSO to give a log or semi-log dilution series. The wells for ‘no treatment’ and ‘anisomycin’ were treated with 0.1% DMSO only. The cells were incubated at 37° C., 5% CO2 for a further 4 hours. Anisomycin was added to all wells except ‘no treatment’ at a final concentration of 10 μM. The cells were incubated at 37° C., 5% CO2 for 30 minutes before harvest. Plates were stood on ice whilst harvesting, and all following steps were carried out at 4° C. The cells were pelleted at 1000 rpm for 10 minutes at 4° C., the media aspirated, and the pellet washed with cold PBS. The pellets were lysed in 120 μl of SDS lysis buffer (62.5 mM Tris, pH 6.8, 2% SDS, 10% glycerol, 50 mM DTT, with protease inhibitors and phosphatase inhibitors added according to the manufacturers' recommendations). After 30 minutes on ice, the samples were sonicated for 5 seconds before centrifugation at 13,000 rpm 4° C. for 10 minutes to remove cell debris. 10 μl of the resulting gel samples were loaded per lane on NOVEX 4-12% Bis-Tris MOPS gels. Membranes from western transfer of gels were blotted with anti-phospho MAPKAP2, anti-phospho HSP27 and anti GAPDH according to the manufacturers' Instructions. Signal was visualised using HRP-Hnked anti-rabbit or anti-mouse antibodies, ECL reagent and ECL film. IC50 values for the various compounds were visualised from the resulting photographic images, using both band-shift and signal intensity.

Assay [2] has as its system phosphorylation of MAPKAP-2 in HUT 78 cells. Nature of the assay: p38 MAP Kinase cellular assay: inhibition of phosphorylation of MAPKAP2 in HUT 78 cells. The class given is cell-based. The following applies: Table 2. How it is done: as §1, §2

Here are results for 1 molecule from patent US9636409B2, “Enzyme and receptor modulation using covalent conjugates of alpha,alpha-disubstituted glycine esters” (GlaxoSmithKline Intellectual Property Development Limited, priority 2008, dated 2017).

For orientation: IC50 means the concentration that inhibits the measured activity by half.

Read-outs that look alike come from different tables or passages of the source.

T1 sequence (Q16539 whole entry): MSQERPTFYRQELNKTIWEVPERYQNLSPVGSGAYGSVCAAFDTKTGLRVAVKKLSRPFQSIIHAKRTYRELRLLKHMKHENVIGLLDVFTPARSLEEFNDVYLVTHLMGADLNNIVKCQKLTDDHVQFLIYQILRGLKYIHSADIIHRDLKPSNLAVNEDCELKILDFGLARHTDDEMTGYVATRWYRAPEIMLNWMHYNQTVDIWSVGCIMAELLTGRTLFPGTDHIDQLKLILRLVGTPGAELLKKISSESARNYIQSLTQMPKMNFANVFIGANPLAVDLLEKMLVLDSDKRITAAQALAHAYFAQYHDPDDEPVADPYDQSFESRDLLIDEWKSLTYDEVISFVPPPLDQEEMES

Take `Nc1c(C(=O)c2ccc(F)cc2F)ccc(=O)n1-c1ccccc1` [Compound I, reference compound]: the IC50 was 50 nM on p38 MAP Kinase α; 300 nM in assay [1] (Table 1 (biology), U937 cells, read-out: Inhibition of phosphorylation of MAPKAP-2 in U937 cells (IC50)); 300 nM in assay [1] (Table 2, U937 monocyte cell line, read-out: Inhibition of phosphorylation of MAPKAP-2 in U937 cells (IC50, nM) (monocyte cell line)); 450 nM in assay [2] (Homo sapiens, HuT78, HUT 78 non-monocyte cell line). The “Ratio cell IC50s to enzyme IC50” value in assay [1] (U937 MAPKAP-2 IC50 to P38 enzyme IC50) worked out at 6. Moreover, the “potency in monocytic versus non monocytic cell lines (MAPKAP-2 phosphorylation)” value in assay [1] (U937 versus HUT 78) is on record as “equipotent”. In addition, the “Ratio IC50s in HUT 78 to U937 cells” value in assay [2] (MAPKAP-2 phosphorylation IC50s) turned out to be 1.5.
